{
  "source": "patent US12350294B2",
  "about": "“Medium comprising serum replacement, IGF1, STAT3 activator and adrenal gland hormone without BFGF or rock inhibitor for producing corneal endothelial substitute cells from iPS cells and a method thereof” (KEIO UNIVERSITY, priority 2018, dated 2025)",
  "format_in_all_cases": "cell-based, human",
  "key": {"[1]": {"system": "iPS cells (FF-I01s04 line)", "assay": "Differentiation induction inhibitory activity of ROCK inhibitor (immunostaining)", "details": "medium containing fasudil 50 μM", "description": "In the same manner as in Example 2 except that a medium containing fasudil (50 μM), which is a ROCK inhibitor, was used, the expression of ATP1A1 and ZO-1 was examined."}, "[2]": {"system": "iPS cells (FF-I01s04)", "assay": "Effect of TGF-beta 1 added to the induction medium, immunostaining after passage", "details": "TGF-beta 1 1 ng/mL added to induction medium", "description": "Using a medium (hereinafter referred to as CECSi cell induction (+T) medium) obtained by adding TGF-beta 1 (R&D System Inc., #240-GMP (1 ng/mL)) to the differentiation induction medium prepared in Example 1, the effect thereof was investigated.\nInduction of iPS cells (FF-I01s04) was started using CECSi cell induction medium or CECSi cell induction (+T) medium, and the first passage was performed on day 11 and the second passage was performed on […] from the start of induction. At the time of passage, the cells were collected using Accutase (Nacalai Tesque #12679-54), and suspended and seeded at a density of 1.5×10^5 cells/cm^2 in a 35 mm dish or 100 mm dish coated with iMatrix 511 at a concentration of 3 μg/ml, without changing the previous medium.\nAt day 15 (after the first passage) and day 17 (after the second passage) from the start of induction, the expression state of N-cadherin and PITX2 was examined by immunostaining in the same manner as in Example 2."}, "[3]": {"system": "iPS cells (FF-I01s04 line)", "assay": "Differentiation induction inhibitory activity of bFGF (quantitative PCR and immunostaining)", "description": "In the same manner as in Example 1 except that a medium containing bFGF (2 ng/mL) was used, the expression of each gene was quantified. As is clear from the results, when bFGF was added, an increase in ATPA1 or NR3C2 expression was not observed, and therefore an increase in ATP1A1 expression, which is important as the function of corneal endothelial cells, was not observed, either.\nThe expression of ATP1A1 and ZO-1 in the cells cultured in a medium containing bFGF was examined in the same manner as in Example 2."}, "[4]": {"details": "immunostaining, medium containing bFGF"}, "[5]": {"details": "quantitative PCR, medium containing bFGF 2 ng/mL, day 12"}},
  "data": [
    {"compound": "O=S(=O)(c1cccc2cnccc12)N1CCCNCC1", "note": "[fasudil]", "values": [
      {"measurement": "expression of ATP1A1 in the cellular membrane", "setting": "[1]", "result": "low"},
      {"measurement": "expression of ZO-1 and cell shape", "setting": "[1]", "result": "Elongated cells poorly expressing ZO-1 appeared"}
    ]},
    {"compound": "TGF-beta 1: isoform of transforming growth factor beta, protein added to the medium", "values": [
      {"measurement": "endothelial morphology after passage", "setting": "[2]; day 15 and day 17", "result": "could be maintained"},
      {"measurement": "expression of N-cadherin after passage", "setting": "[2]; day 15 and day 17, after first and second passage", "result": "maintained"}
    ]},
    {"compound": "bFGF: basic fibroblast growth factor", "values": [
      {"measurement": "expression of ATP1A1", "setting": "[3]; [4]", "result": "remarkably low"},
      {"measurement": "expression of ZO-1 and cell shape", "setting": "[3]; [4]", "result": "Elongated cells poorly expressing ZO-1 appeared"},
      {"measurement": "increase in ATP1A1 expression", "setting": "[3]; [5]", "result": "not observed"},
      {"measurement": "increase in ATPA1 or NR3C2 expression", "setting": "[3]; [5]", "result": "not observed"}
    ]}
  ]
}
